How the values were obtained:
[1] = target: LDHA (Homo sapiens (Human), UniProt P00338); assay: Coupled diaphorase assay, LDHA; assay type: biochemical; conditions: lactate to pyruvate direction, 4-7 nM LDHA
From the text: (§1) The inhibitory properties of the compounds were investigated using a coupled enzyme assay that links the lactate dehydrogenase (LDH) reaction to the production of fluorescent resorutin by diaphorase.
(§2) Human lactate dehydrogenases (LDH) catalyze the reversible interconversion between pyruvate and lactate. LDH is capable of catalyzing both the forward (pyruvate to lactate) and the reverse (lactate to pyruvate) reaction, using either NADH or NAD^+ as a cofactor. The reaction proceeds in either direction dependent on various factors, such as substrate availability, the presence of necessary cofactors, temperature and pH. Different isoforms (LDH A, B, and C) of the enzyme favor different reaction directions—LDHA prefers the conversion from pyruvate to lactate, whereas LDHB preferentially oxidizes lactate to pyruvate.
The coupled assay relies on the oxidation of NAD^+ to NADH throughout the conversion of lactate to pyruvate by LDH (isoforms A, B and C). The produced NADH serves as cofactor in the diaphorase reaction, which reduces non-fluorescent resazurin to fluorescent resorufin. Therefore, the assay indirectly monitors the rate of pyruvate production. Although the consumption of NADH can be directly monitored due to the intrinsic fluorescence of the molecule (excitation: 340 nm, emission: 460 nm) there are problems linked to the direct readout method. […] Shifting the assay to longer wavelengths by coupling the LDH reaction to the conversion of resazurin to fluorescent resorufin by diaphorase reduces this compound interference. The assay direction was thus chosen to provide a robust and reliable assay. […]
Compounds were tested in duplicates using 2-fold, 3-fold or 4-fold serial dilutions including 11 individual concentrations, starting from 5000 μM to 30 μM. […] The controls allowed for the calculation of the percentage inhibition for each data point. […] Enzyme solution leading to final concentrations of 4-7 nM LDHA or 6 nM LDHB, as well as 0.2 U/ml diaphorase in the reaction well was dispensed into 384-well plates (Greiner bio-one) using a CyBi®-SELMA robotic pipettor. Compound dilutions and the enzyme were incubated for at least 20 min at room temperature. […] The reaction was quenched by the addition of a stop solution (final concentrations: 20 mM EDTA, 400 mM NaCl, 40 mM pyruvate). Fluorescence was read out after 5 min of incubation at an excitation wavelength of 560 nm and an emission wavelength of 590 nm on a Perkin Elmer Victor X plate reader. […]
(§3) Fluorescence data was normalized to DMSO and inhibition controls resulting in percentage inhibition for every compound concentration. Dose response curves were fitted in KaleidaGraph (www.synergy.com) or Dotmatics software package (www.dotmatics.com) using a standard 4-parameter fit (Levenberg-Marquardt fitting procedure), resulting in IC50 values for the test compounds.

[2] = target: LDHB (Homo sapiens (Human), UniProt P07195); assay: Coupled diaphorase assay, LDHB; assay type: biochemical; conditions: lactate to pyruvate direction, 6 nM LDHB
From the text: as §1, §2
The coupled assay relies on the oxidation of NAD^+ to NADH throughout the conversion of lactate to pyruvate by LDH (isoforms A, B and C). The produced NADH serves as cofactor in the diaphorase reaction, which reduces non-fluorescent resazurin to fluorescent resorufin. Therefore, the assay indirectly monitors the rate of pyruvate production. Although the consumption of NADH can be directly monitored due to the intrinsic fluorescence of the molecule (excitation: 340 nm, emission: 460 nm) there are problems linked to the direct readout method. […] Shifting the assay to longer wavelengths by coupling the LDH reaction to the conversion of resazurin to fluorescent resorufin by diaphorase reduces this compound interference. The assay direction was thus chosen to provide a robust and reliable assay.
Applying the LDHA reaction in the preferred direction for the conversion of pyruvate to lactate under oxidation of NADH to NAD^+ would necessitate running the LDHA reaction to about 80% completion and adding the diaphorase assay reagents afterwards in order to avoid enzyme competition for NADH.
The controls allowed for the calculation of the percentage inhibition for each data point. […] Enzyme solution leading to final concentrations of 4-7 nM LDHA or 6 nM LDHB, as well as 0.2 U/ml diaphorase in the reaction well was dispensed into 384-well plates (Greiner bio-one) using a CyBi®-SELMA robotic pipettor. Compound dilutions and the enzyme were incubated for at least 20 min at room temperature. […] The reaction was quenched by the addition of a stop solution (final concentrations: 20 mM EDTA, 400 mM NaCl, 40 mM pyruvate). Fluorescence was read out after 5 min of incubation at an excitation wavelength of 560 nm and an emission wavelength of 590 nm on a Perkin Elmer Victor X plate reader. […]
as §3

Chain of LDHB (P07195 whole entry): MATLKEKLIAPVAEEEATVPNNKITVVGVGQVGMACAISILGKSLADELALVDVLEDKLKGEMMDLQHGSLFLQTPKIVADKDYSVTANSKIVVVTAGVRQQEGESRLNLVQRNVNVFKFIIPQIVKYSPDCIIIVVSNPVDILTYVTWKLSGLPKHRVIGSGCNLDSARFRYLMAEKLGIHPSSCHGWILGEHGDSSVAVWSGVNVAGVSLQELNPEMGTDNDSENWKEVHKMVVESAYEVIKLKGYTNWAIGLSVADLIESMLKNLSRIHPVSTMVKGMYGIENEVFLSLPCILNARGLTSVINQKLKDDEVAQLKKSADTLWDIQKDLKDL

SMILES	IC50 [1]	IC50 [2]
CC(=O)OC1=C(Sc2ccc(F)cc2Cl)C(=O)NC(c2ccsc2)(c2cccc(OCC3CCCC3)n2)C1 (centres unmarked) [Example 13, 5-((2-chloro-4-fluorophenyl)thio)-6′-(cyclopentylmethoxy)-6-oxo-2-(thiophen-3-yl)-1,2,3,6-tetrahydro-[2,2′-bipyridin]-4-yl acetate]	> 100 µM	> 100 µM
COC(=O)OC1=C(Sc2cccc(Cl)c2Cl)C(=O)NC(c2ccsc2)(c2cccc(OCC3CCCC3)n2)C1 (centres unmarked) [Example 12, 6′-(cyclopentylmethoxy)-5-((2,3-dichlorophenyl)thio)-6-oxo-2-(thiophen-3-yl)-1,2,3,6-tetrahydro-[2,2′-bipyridin]-4-yl methyl carbonate]	> 100 µM	> 100 µM
CCOc1cccc(C2(c3ccsc3)CC(=O)C(Sc3ccc(F)cc3Cl)C(=O)N2)n1 (centres unmarked) [Example 4, 3-((2-chloro-4-fluorophenyl)thio)-6-(6-ethoxypyridin-2-yl)-6-(thiophen-3-yl)piperidine-2,4-dione]	10 to 50 µM	> 100 µM
CCOC(=O)OC1=C(Sc2ccc(F)cc2Cl)C(=O)NC(c2ccsc2)(c2cccc(OCC3CCCC3)n2)C1 (centres unmarked) [Example 11, 5-[(2-chloro-4-fluorophenyl)sulfanyl]-2-[6-(cyclopentylmethoxy)pyridin-2-yl]-6-oxo-2-(thiophen-3-yl)-1,2,3,6-tetrahydropyridin-4-yl ethyl carbonate]	> 100 µM	> 100 µM
O=C1CC(c2cncnc2)(c2ccsc2)OC(=O)C1Sc1ccccc1Cl (centres unmarked) [Example 19, 3-((2-chlorophenyl)thio)-6-(pyrimidin-5-yl)-6-(thiophen-3-yl)dihydro-2H-pyran-2,4(3H)-dione]	0.5 to 10 µM	
O=C1CC(c2ccsc2)(c2ccccn2)OC(=O)C1Sc1ccccc1Cl (centres unmarked) [Example 20, 3-((2-chlorophenyl)thio)-6-(pyridin-2-yl)-6-(thiophen-3-yl)dihydro-2H-pyran-2,4(3H)-dione]	0.5 to 10 µM	0.5 to 10 µM
CCCCCCCCCCOC(=O)OC1=C(Sc2cc(Cl)ccc2Cl)C(=O)NC(c2ccsc2)(c2cccc(OCC3CCCC3)n2)C1 (centres unmarked) [Example 16, 6′-(cyclopentylmethoxy)-5-((2,5-dichlorophenyl)thio)-6-oxo-2-(thiophen-3-yl)-1,2,3,6-tetrahydro-[2,2′-bipyridin]-4-yl decyl carbonate]	> 100 µM	
CCCOC(=O)OC1=C(Sc2ccc(F)cc2Cl)C(=O)NC(c2ccc(N3CCOCC3)cc2)(c2ccsc2)C1 (centres unmarked) [Example 14, 5-((2-chloro-4-fluorophenyl)thio)-2-(4-morpholinophenyl)-6-oxo-2-(thiophen-3-yl)-1,2,3,6-tetrahydropyridin-4-yl propyl carbonate]	50 to 100 µM	50 to 100 µM
COCCOC(=O)OC1=C(Sc2ccccc2Cl)C(=O)OC(c2cnc(N3CCOCC3)nc2)(c2ccsc2)C1 (centres unmarked) [Example 35, 5-((2-chlorophenyl)thio)-2-(2-morpholinopyrimidin-5-yl)-6-oxo-2-(thiophen-3-yl)-3,6-dihydro-2H-pyran-4-yl (2-methoxyethyl) carbonate]	10 to 50 µM	
COCCOC(=O)OC1=C(Sc2cc(Cl)ccc2Cl)C(=O)NC(c2ccc(N3CCOCC3)cc2)(c2ccsc2)C1 (racemic) [Example 17, 5-((2,5-dichlorophenyl)thio)-2-(4-morpholinophenyl)-6-oxo-2-(thiophen-3-yl)-1,2,3,6-tetrahydropyridin-4-yl (2-methoxyethyl) carbonate]	10 to 50 µM	
COCCOC(=O)OC1=C(Sc2cc(Cl)ccc2Cl)C(=O)NC(c2ccc(N3CCOCC3)cc2)(c2ccsc2)C1 (single isomer, unassigned) [Example 17 Enantiomer 1]	10 to 50 µM	
O=C1CC(c2ccc(N3CCOCC3)cc2)(c2ccsc2)NC(=O)C1Sc1cc(Cl)ccc1Cl (single isomer, unassigned) [Example 10 Enantiomer 1]	0.5 to 10 µM	
O=C1NC(c2ccc(N3CCOCC3)cc2)(c2ccsc2)CC(OC(=O)c2ccncc2)=C1Sc1cc(Cl)ccc1Cl (centres unmarked) [Example 31, 5-((2,5-dichlorophenyl)thio)-2-(4-morpholinophenyl)-6-oxo-2-(thiophen-3-yl)-1,2,3,6-tetrahydropyridin-4-yl isonicotinate]	0.5 to 10 µM	

Now from value to molecule:

IC50 [1]	IC50 [2]	SMILES
0.1 to 0.5 µM	0.1 to 0.5 µM	O=C1CC(c2ccc(N3CCOCC3)cc2)(c2ccsc2)NC(=O)C1Sc1ccc(F)cc1Cl (centres unmarked) [Example 8, 3-((2-chloro-4-fluorophenyl)thio)-6-(4-morpholinophenyl)-6-(thiophen-3-yl)piperidine-2,4-dione]
50 to 100 µM		CC(C)COC(=O)OC1=C(Sc2cc(Cl)ccc2Cl)C(=O)NC(c2ccc(N3CCOCC3)cc2)(c2ccsc2)C1 (centres unmarked) [Example 26, 5-((2,5-dichlorophenyl)thio)-2-(4-morpholinophenyl)-6-oxo-2-(thiophen-3-yl)-1,2,3,6-tetrahydropyridin-4-yl isobutyl carbonate]
0.5 to 10 µM		COCCOC(=O)OC1=C(Sc2cc(Cl)ccc2Cl)C(=O)NC(c2ccc(N3CCOCC3)cc2)(c2ccsc2)C1 (single isomer, unassigned) [Example 17 Enantiomer 2]
0.5 to 10 µM	> 100 µM	O=C1CC(c2ccc(N3CCOCC3)cc2)(c2ccsc2)NC(=O)C1Sc1cccc(Cl)c1Cl (centres unmarked) [Example 9, 3-((2,3-dichlorophenyl)thio)-6-(4-morpholinophenyl)-6-(thiophen-3-yl)piperidine-2,4-dione]
50 to 100 µM	> 100 µM	CCOC(=O)OC1=C(Sc2cccc(Cl)c2Cl)C(=O)NC(c2ccc(N3CCOCC3)cc2)(c2ccsc2)C1 (centres unmarked) [Example 15, 5-((2,3-dichlorophcnyl)thio)-2-(4-morpholinophenyI)-6-oxo-2-(thiophcn-3-yl)-1,2,3,6-tetrahydropyridin-4-yl ethyl carbonate]
10 to 50 µM		CC(C)(C)C(=O)OC1=C(Sc2cc(Cl)ccc2Cl)C(=O)NC(c2ccc(N3CCOCC3)cc2)(c2ccsc2)C1 (centres unmarked) [Example 28, 5-((2,5-dichlorophenyl)thio)-2-(4-morpholinophenyl)-6-oxo-2-(thiophen-3-yl)-1,2,3,6-tetrahydropyridin-4-yl pivalate]
> 100 µM		COCCOC(=O)OC1=C(Sc2cc(Cl)ccc2Cl)C(=O)NC(c2ccsc2)(c2cccc(OCC3CCCC3)n2)C1 (centres unmarked) [Example 34, 6′-(cyclopentylmethoxy)-5-((2,5-dichlorophenyl)thio)-6-oxo-2-(thiophen-3-yl)-1,2,3,6-tetrahydro-[2,2′-bipyridin]-4-yl (2-methoxyethyl) carbonate]
10 to 50 µM		CC(=O)OC1=C(Sc2cc(Cl)ccc2Cl)C(=O)NC(c2ccc(N3CCOCC3)cc2)(c2ccsc2)C1 (centres unmarked) [Example 27, 5-((2,5-dichlorophenyl)thio)-2-(4-morpholinophenyl)-6-oxo-2-(thiophen-3-yl)-1,2,3,6-tetrahydropyridin-4-yl acetate]
10 to 50 µM		O=C1CC(c2ccc(N3CCOCC3)cc2)(c2ccsc2)NC(=O)C1Sc1cc(Cl)ccc1Cl (single isomer, unassigned) [Example 10 Enantiomer 2]
10 to 50 µM		COC(=O)OC1=C(Sc2ccccc2Cl)C(=O)OC(c2ccsc2)(c2ccc(Br)cn2)C1 (centres unmarked) [Example 21, 2-(5-bromopyridin-2-yl)-5-((2-chlorophenyl)thio)-6-oxo-2-(thiophen-3-yl)-3,6-dihydro-2H-pyran-4-yl methyl carbonate]
